For 40 molecules, IC50 and Activity results are on record in ChEMBL document CHEMBL6071153, “Design, synthesis, and evaluation of antitumor activity in Pseudolaric acid B Azole derivatives: Novel and potent angiogenesis inhibitor via regulation of the PI3K/AKT and MAPK mediated HIF-1/VEGF signaling pathway” (Eur J Med Chem, 2024).

SMILES strings stand for the structures.

The test system of data set [1] is SiHa. The experiment in a line: Cytotoxicity against human SiHa cells assessed as inhibition of cell growth incubated for 24 hrs under normoxic condition by MTT assay. It is filed as functional, cell-based. Background: Tetrazolium assays rely on reduction of a dye to a coloured formazan, in cell work by metabolically active cells.
The nature of data set [2]: Inhibition of VEGFR mediated endocytosis in human SiHa cells incubated for 24 hrs under hypoxic condition by ELISA. In kind it is cell-based. On the technique in general: ELISA stands for enzyme-linked immunosorbent assay.
Data set [3] is described as follows: Inhibition of HIF-1 transcriptional activity in human HCT-116 cells preincubated for 1 hr under normoxic condition followed by 24 hrs incubation under hypoxic condition by luciferase reporter assay. In kind it is cell-based.
Data set [4] is described as follows: Toxicity in Balb/c mouse xenografted with human SiHa cells assessed as reduction in body weight at 30 mg/kg,ip administration measured after 22 days. It is filed as organism-based. To be noted: in vivo, 528 h, time 22 day. (A xenograft is tissue or cells of one species grown in another, often human tumour cells in immunodeficient mice.)

As usually defined, the IC50 is the concentration needed to halve the response being measured.

As to `COC(=O)C1=CC[C@@]23CC[C@@H]([C@@](C)(/C=C/C=C(\C)C(=O)OCC(=O)Nc4ccc(OC)cc4)OC2=O)[C@@]3(OC(C)=O)CC1`, the IC50 in data set [1] is greater than 30 µM; in data set [2], 1.86 µM.
For `COC(=O)C1=CC[C@@]23CC[C@@H]([C@@](C)(/C=C/C=C(\C)C(=O)OCc4cn(Cc5ccc(Cl)cc5)nn4)OC2=O)[C@@]3(OC(C)=O)CC1`, the figures for the half-inhibitory concentration (IC50) in data set [1] and in data set [2] were greater than 30 µM and 1.43 µM, respectively.
Take `COC(=O)C1=CC[C@@]23CC[C@@H]([C@@](C)(/C=C/C=C(\C)C(=O)OCc4cn(-c5ccc(OC)cc5)nn4)OC2=O)[C@@]3(OC(C)=O)CC1`: the IC50 in data set [1] is greater than 30 µM; in data set [2], 2.18 µM.
`COC(=O)C1=CC[C@@]23CC[C@@H]([C@@](C)(/C=C/C=C(\C)C(=O)OCCn4ncn(-c5ccc(Cl)cc5)c4=O)OC2=O)[C@@]3(OC(C)=O)CC1`: the 50% inhibitory concentration (IC50) was greater than 30 µM in data set [1] and 1.86 µM in data set [2].
As for `COC(=O)C1=CC[C@@]23CC[C@@H]([C@@](C)(/C=C/C=C(\C)C(=O)OCc4nc(-c5ccc(Cl)c(Cl)c5)no4)OC2=O)[C@@]3(OC(C)=O)CC1`, the IC50 in data set [1] is greater than 30 µM; in data set [2], 3.03 µM.
The matching figures for `COC(=O)C1=CC[C@@]23CC[C@@H]([C@@](C)(/C=C/C=C(\C)C(=O)OCCn4ncn(-c5ccc(F)cc5)c4=O)OC2=O)[C@@]3(OC(C)=O)CC1`: greater than 30 µM and 2.38 µM.
The matching figures for `COC(=O)C1=CC[C@@]23CC[C@@H]([C@@](C)(/C=C/C=C(\C)C(=O)NCc4cn(-c5ccc(OC)cc5)nn4)OC2=O)[C@@]3(OC(C)=O)CC1`: greater than 30 µM and 5.06 µM.
With `COC(=O)C1=CC[C@@]23CC[C@@H]([C@@](C)(/C=C/C=C(\C)C(=O)OCc4cn(-c5ccccc5)nn4)OC2=O)[C@@]3(OC(C)=O)CC1`, the 50% inhibitory concentration (IC50) in data set [1] is greater than 30 µM; in data set [2], greater than 5 µM.
For `COC(=O)C1=CC[C@@]23CC[C@@H]([C@@](C)(/C=C/C=C(\C)C(=O)OCc4cc(-c5ccccc5)no4)OC2=O)[C@@]3(OC(C)=O)CC1`, the IC50 in data set [1] is greater than 30 µM; in data set [2], greater than 5 µM.
Regarding `OC1CCN(CCOc2cccc(Cn3nc(-c4nc(-c5ccc(OC(F)(F)F)cc5)no4)c4ccccc43)c2)CC1`, the IC50 in data set [3] turned out to be 0.55 µM.
In the case of `COC(=O)C1=CC[C@@]23CC[C@@H]([C@@](C)(/C=C/C=C(\C)C(=O)OCc4cn(Cc5ccccc5)nn4)OC2=O)[C@@]3(OC(C)=O)CC1`, the IC50 is greater than 30 µM in data set [1] and greater than 5 µM in data set [2].
With `COC(=O)C1=CC[C@@]23CC[C@@H]([C@@](C)(/C=C/C=C(\C)C(=O)OCc4nc(-c5ccccc5)no4)OC2=O)[C@@]3(OC(C)=O)CC1`, the IC50 in data set [1] was greater than 30 µM; in data set [2] it was 2 µM.
The matching figures for `COC(=O)C1=CC[C@@]23CC[C@@H]([C@@](C)(/C=C/C=C(\C)C(=O)OCCn4ncn(-c5ccc(OC)c(OC)c5)c4=O)OC2=O)[C@@]3(OC(C)=O)CC1`: greater than 30 µM and greater than 5 µM.
On to `COC(=O)C1=CC[C@@]23CC[C@@H]([C@@](C)(/C=C/C=C(\C)C(=O)OCc4nc(-c5ccc(Cn6cncn6)cc5)no4)OC2=O)[C@@]3(OC(C)=O)CC1`, for which the IC50 was greater than 30 µM in data set [1] and greater than 5 µM in data set [2].
Take `COC(=O)C1=CC[C@@]23CC[C@@H]([C@@](C)(/C=C/C=C(\C)C(=O)OCc4cn(Cc5cc(OC)c(OC)c(OC)c5)nn4)OC2=O)[C@@]3(OC(C)=O)CC1`: the results for the IC50 in data set [1] and in data set [2] were greater than 30 µM and 2.3 µM, respectively.
In the case of `O=c1[nH]cc(F)c(=O)[nH]1` [FLUOROURACIL], the Activity result in data set [4] is “Non-Toxic”.
For `COC(=O)C1=CC[C@@]23CC[C@@H]([C@@](C)(/C=C/C=C(\C)C(=O)OCCn4ncn(-c5ccc(Cl)c(Cl)c5)c4=O)OC2=O)[C@@]3(OC(C)=O)CC1`, the IC50 in data set [1] is greater than 30 µM; in data set [2], 1.17 µM.
Take `COC(=O)C1=CC[C@@]23CC[C@@H]([C@@](C)(/C=C/C=C(\C)C(=O)OCCn4ncn(-c5ccccc5)c4=O)OC2=O)[C@@]3(OC(C)=O)CC1`: the figures for the IC50 in data set [1] and in data set [2] were greater than 30 µM and 4.03 µM, respectively.
For the molecule `COC(=O)C1=CC[C@@]23CC[C@@H]([C@@](C)(/C=C/C=C(\C)C(=O)OCc4cn(Cc5ccc(F)cc5)nn4)OC2=O)[C@@]3(OC(C)=O)CC1`, the figures for the 50% inhibitory concentration (IC50) in data set [1] and in data set [2] were greater than 30 µM and 3.89 µM, respectively.
Turning to `COC(=O)C1=CC[C@@]23CC[C@@H]([C@@](C)(/C=C/C=C(\C)C(=O)OCc4nnc(-c5ccc(OC)cc5)o4)OC2=O)[C@@]3(OC(C)=O)CC1`, the figures for the IC50 in data set [1] and in data set [2] were greater than 30 µM and greater than 5 µM, respectively.
As for `COC(=O)C1=CC[C@@]23CC[C@@H]([C@@](C)(/C=C/C=C(\C)C(=O)NCc4cn(-c5ccccc5)nn4)OC2=O)[C@@]3(OC(C)=O)CC1`, the IC50 in data set [1] was greater than 30 µM; in data set [2], 2.91 µM.
Take `COC(=O)C1=CC[C@@]23CC[C@@H]([C@@](C)(/C=C/C=C(\C)C(=O)NCc4cn(-c5ccc(Cl)c(Cl)c5)nn4)OC2=O)[C@@]3(OC(C)=O)CC1`: the IC50 in data set [1] was greater than 30 µM; in data set [2] it was greater than 5 µM.
`COC(=O)C1=CC[C@@]23CC[C@@H]([C@@](C)(/C=C/C=C(\C)C(=O)OCCn4ncn(-c5ccc(OC)cc5)c4=O)OC2=O)[C@@]3(OC(C)=O)CC1`: the results for the IC50 in data set [1] and in data set [2] were greater than 30 µM and greater than 5 µM, respectively.
With `COC(=O)C1=CC[C@@]23CC[C@@H]([C@@](C)(/C=C/C=C(\C)C(=O)OCC(=O)Nc4ccccc4)OC2=O)[C@@]3(OC(C)=O)CC1`, the IC50 in data set [1] was greater than 30 µM; in data set [2], 4.03 µM.
As for `COC(=O)C1=CC[C@@]23CC[C@@H]([C@@](C)(/C=C/C=C(\C)C(=O)OCc4cn(-c5ccc(Cl)cc5)nn4)OC2=O)[C@@]3(OC(C)=O)CC1`, the figures for the IC50 in data set [1] and in data set [2] were greater than 30 µM and 2.15 µM, respectively.
The matching figures for `COC(=O)C1=CC[C@@]23CC[C@@H]([C@@](C)(/C=C/C=C(\C)C(=O)NCc4cn(-c5ccc(F)cc5)nn4)OC2=O)[C@@]3(OC(C)=O)CC1`: greater than 30 µM and 4.14 µM.
Regarding `COC(=O)C1=CC[C@@]23CC[C@@H]([C@@](C)(/C=C/C=C(\C)C(=O)OCC(=O)NCc4cn(-c5ccccc5)nn4)OC2=O)[C@@]3(OC(C)=O)CC1`, the values for the half-inhibitory concentration (IC50) in data set [1] and in data set [2] were greater than 30 µM and 2.8 µM, respectively.
Turning to `COC(=O)C1=CC[C@@]23CC[C@@H]([C@@](C)(/C=C/C=C(\C)C(=O)OCc4cn(Cc5ccc(Cl)c(Cl)c5)nn4)OC2=O)[C@@]3(OC(C)=O)CC1`, the values for the half-inhibitory concentration (IC50) in data set [1] and in data set [2] were greater than 30 µM and 2.79 µM, respectively.
For `COC(=O)C1=CC[C@@]23CC[C@@H]([C@@](C)(/C=C/C=C(\C)C(=O)OCC(=O)Nc4ccc(Cl)cc4)OC2=O)[C@@]3(OC(C)=O)CC1`, the concentration for half-maximal inhibition (IC50) in data set [1] is greater than 30 µM; in data set [2], 4.38 µM.
As to `COC(=O)C1=CC[C@@]23CC[C@@H]([C@@](C)(/C=C/C=C(\C)C(=O)NCc4cn(-c5ccc(Cl)cc5)nn4)OC2=O)[C@@]3(OC(C)=O)CC1`, the values for the IC50 in data set [1] and in data set [2] were greater than 30 µM and 3.74 µM, respectively.
Turning to `COC(=O)C1=CC[C@@]23CC[C@@H]([C@@](C)(/C=C/C=C(\C)C(=O)OCc4cc(-c5ccc(OC)cc5)no4)OC2=O)[C@@]3(OC(C)=O)CC1`, the values for the IC50 in data set [1] and in data set [2] were greater than 30 µM and greater than 5 µM, respectively.
As to `COC(=O)C1=CC[C@@]23CC[C@@H]([C@@](C)(/C=C/C=C(\C)C(=O)OCc4cn(Cc5ccc(OC)cc5)nn4)OC2=O)[C@@]3(OC(C)=O)CC1`, the values for the concentration for half-maximal inhibition (IC50) in data set [1] and in data set [2] were greater than 30 µM and 1.75 µM, respectively.
`COC(=O)C1=CC[C@@]23CC[C@@H]([C@@](C)(/C=C/C=C(\C)C(=O)OCc4nnc(-c5ccccc5)o4)OC2=O)[C@@]3(OC(C)=O)CC1`: the half-maximal inhibitory concentration (IC50) in data set [1] is greater than 30 µM; in data set [2], greater than 5 µM.
With `C[C@H]1[C@H](C)CC[C@]2(C(=O)OCCCn3ncn(-c4ccccc4)c3=O)CC[C@]3(C)C(=CC[C@@H]4[C@@]5(C)CCC(O)C(C)(C)[C@@H]5CC[C@]43C)[C@H]12` (stereo partly specified), the IC50 in data set [3] was found to be 36.9 µM.
Take `COC(=O)C1=CC[C@@]23CC[C@@H]([C@@](C)(/C=C/C=C(\C)C(=O)OCc4nc(-c5ccc(Cl)cc5)no4)OC2=O)[C@@]3(OC(C)=O)CC1`: the half-inhibitory concentration (IC50) is greater than 30 µM in data set [1] and 1.51 µM in data set [2].
`COC(=O)C1=CC[C@@]23CC[C@@H]([C@@](C)(/C=C/C=C(\C)C(=O)OCc4nnc(-c5ccc(Cl)cc5)o4)OC2=O)[C@@]3(OC(C)=O)CC1`: the IC50 in data set [1] was greater than 30 µM; in data set [2], greater than 5 µM.
`CN1CCN(CCOc2cccc(Cn3nc(-c4nc(-c5ccc(OC(F)(F)F)cc5)no4)c4ccccc43)c2)CC1` registered an IC50 in data set [3] of 0.62 µM.
As to `COC(=O)C1=CC[C@@]23CC[C@@H]([C@@](C)(/C=C/C=C(\C)C(=O)OCc4cc(-c5ccc(Cl)cc5)no4)OC2=O)[C@@]3(OC(C)=O)CC1`, the IC50 in data set [1] is greater than 30 µM; in data set [2], 4.44 µM.
The matching figures for `COC(=O)C1=CC[C@@]23CC[C@@H]([C@@](C)(/C=C/C=C(\C)C(=O)OCc4nc(-c5ccc(OC)cc5)no4)OC2=O)[C@@]3(OC(C)=O)CC1`: greater than 30 µM and 4.16 µM.
The matching figures for `COC(=O)C1=CC[C@@]23CC[C@@H]([C@@](C)(/C=C/C=C(\C)C(=O)OCC(=O)NCc4cn(-c5ccc(OC)cc5)nn4)OC2=O)[C@@]3(OC(C)=O)CC1`: greater than 30 µM and 3.4 µM.
